# Assay results: patent US20260115187A1, “TRICYCLIC SKELETON COMPOUND AND USE THEREOF IN PREPARATION OF ANTITUMOR DRUG” (ZHONGSHAN HOSPITAL, FUDAN UNIVERSITY, priority 2024, published 2026)
# pIC50: −log10 of the molar value.
# Tests used:
# [1] = test system: PLC/PRF/5 KSR2 OE (PLC cells overexpressing KSR2); experiment: Cell IC50 assay (CCK8 cell viability), PLC/PRF/5 KSR2 OE; assay type: cell-based; conditions: Homo sapiens, PLC-PRF-5; hepatoma cells, 72 h incubation, CCK8; read-out: IC50 value of cell viability, PLC/PRF/5 KSR2 OE (PLC cells overexpressing KSR2)
# Experimental: (§1) (1) Cell Preparation: Hepatoma cells (PLC/PRF/5, sourced from the Chinese Academy of Sciences; MHCC97H, sourced from this research institute) in good growth condition are prepared. The cells are trypsinized, diluted, and seeded into 96-well cell culture plates. 1,000-3,000 cells are added per well. The plates are then placed in a cell culture incubator at 37° C. with 5% CO2. Drugs are added after the cells have adhered for 24 h.
# (§2) (2) Drug Addition: The drugs are subjected to gradient dilution, typically setting 9 concentrations. Control groups containing no drug medium and medium containing only the drug solvent are also set up. The diluted drugs are added to the cell culture plates seeded the previous day. The plates are incubated for 72 h.
# (§3) (3) CCK8 Assay for Cell Viability: CCK8 is mixed with culture medium at a 1:10 ratio. 100 μL of this mixture is added to each well of the cell culture plate. After incubating for 2-4 h, the OD values are measured using a microplate reader.
# (§4) (4) Data Analysis: Based on the corresponding OD values, the data are compiled, IC50 curves are plotted, and the IC50 values are obtained.
# (§5) (5) IC50 Verification: The theoretical IC50 value is identified from the IC50 curve. Drug concentrations at ½ times, 1 time, and 2 times this theoretical value are used for verification.
# [2] = test system: MHCC97H KSR2 OE (97H cells overexpressing KSR2); experiment: Cell IC50 assay (CCK8 cell viability), MHCC97H KSR2 OE; assay type: cell-based; conditions: Homo sapiens, hepatoma cells, 72 h incubation, CCK8, read-out: IC50 value of cell viability, MHCC97H KSR2 OE (97H cells overexpressing KSR2)
# Experimental: as §1, §2, §3, §4, §5
SMILES,pIC50 [1],pIC50 [2]
Cn1nc(C(=O)NCCCN2CCN(C3CCCC3)CC2)c2c1-c1ccccc1SC2 [Compound 3],4.49,4.25
CN1CCN(C2CN(C3CC(CNC(=O)c4nn(C)c5c4COc4cc(Cl)ccc4-5)C3)C2)CC1 (stereo not shown) [Compound 99],5.05,4.77
CC(=O)N1CCN(C2CCN(CCCNC(=O)c3nn(C)c4c3CSc3ccccc3-4)CC2)CC1 [Compound 59],4.96,4.51
CCN1CCN(C2CCN(CCCNC(=O)c3nn(C)c4c3COc3cc(-c5cnn(C)c5)ccc3-4)CC2)CC1 [Compound 133],5.70,6.00
CN1CCN(C2CCN(CCCNC(=O)c3nn(C)c4c3COc3cc(Cl)c(Br)cc3-4)CC2)CC1 [Compound 101],6.00,6.00
Cn1nc(C(=O)NCCCN2CCN(C3CC4(CCC4)C3)CC2)c2c1-c1ccccc1SC2 [Compound 4],4.66,4.82
CN(C)C1CCN(CCCNC(=O)c2nn(C)c3c2CSc2ccccc2-3)C1 (stereo not shown) [Compound 52],4.23,4.30
CN1CCN(C2CCN(CCCNC(=O)c3nn(C)c4c3COc3ccc(F)cc3-4)CC2)CC1 [Compound 76],4.74,4.66
Cn1nc(C(=O)NCCCN2CCC(N3CCC(O)C3)CC2)c2c1-c1ccccc1SC2 (stereo not shown) [Compound 46],5.70,5.22
CN1CCN(C2CCN(CCCNC(=O)c3nn(C)c4c3COc3cc(F)ccc3-4)CC2)CC1 [Compound 71],5.10,5.30
O=C(NCCCN1CCN(C2CCCCC2)CC1)c1nn(CC2CC2)c2c1CSc1ccccc1-2 [Compound 15],5.00,4.41
CN1CCN(C2CN(CCCNC(=O)c3n[nH]c4c3COc3cc(C(F)(F)F)c(C#N)cc3-4)C2)CC1 [Compound 131],4.85,5.05
COCCN1CCN(C2CCN(CCCNC(=O)c3nn(C)c4c3CSc3ccccc3-4)CC2)CC1 [Compound 66],4.72,4.68
Cn1nc(C(=O)NCCCN2CCC(N3CCN(S(C)(=O)=O)CC3)CC2)c2c1-c1ccccc1SC2 [Compound 56],4.30,4.21
